In data set [1] the test system is herpes simplex type 1 (KOS strain). Briefly: Plaque reduction assay in Vero cells infected with herpes simplex type 1 (KOS strain). It counts as cell-based. The settings on record: single agent; for Average Plaque Count: controls = 480. How it is done: The antiviral activity was determined using a plaque reduction assay. Petri plates were seeded with Vero cells which were then allowed to grow to confluency. […] The inhibitors, either alone or in the indicated combinations, were dissolved to give the indicated concentrations in minimal essential medium containing 2% heat inactivated fetal calf serum and 0.5% human immune serum globulin. One hour after infection the solutions (10 ml per plate) were added to the cultures. Three days later the cultures were foramlin-fixed and stained with crystal violet, and the plaques were counted.
For orientation: Plaque reduction counts the foci of infection that form in a cell layer.

Data set [2] can be described thus: Acute toxicity (LD50), rats, oral. The settings on record: rat, in vivo. From the text: (§1) The LD50 values for acyclovir, dilazep and dipyridamole, referred to above are as follows: […]
A short description of data set [3]: Acute toxicity (LD50), mice, oral. The note with it: mouse, in vivo.
Description: as §1

Setting [4] is: Human alphaherpesvirus 1, Vero, Conc. 5.0 μM.
The mark [5] stands for this setting: Human alphaherpesvirus 1, Vero, Conc. 1.0 μM.

Consider four molecules from patent publication US4897394A, “Antiviral combinations” (Burroughs Wellcome CO., priority 1986, dated 1990).

Molecules are shown by their SMILES.

Turning to `OCCN(CCO)c1nc(N2CCCCC2)c2nc(N(CCO)CCO)nc(N3CCCCC3)c2n1` [Dipyridamole], in data set [1] (Conc. 5.0 μM), the “Average Plaque Count” value turned out to be 474.0. Also, in data set [1] (setting [4]), the inhibition (usually the share of the control response that was lost under treatment) at 5 µM is 1%. The 50% lethal dose (LD50) – broadly, the dose expected to kill half of the subjects tested – in data set [2] worked out at 8400 mg/kg.

On to `O=[N+]([O-])c1ccc(CSc2ncnc3c2ncn3[C@@H]2O[C@H](CO)[C@@H](O)[C@H]2O)cc1` [Compound A, 6-[(4-nitrobenzyl)thio]-9-(β-D-ribofuranosyl)purine], for which the “Average Plaque Count” value in data set [1] (Conc. 2.0 μM) worked out at 484.0. Further, in data set [1] (Human alphaherpesvirus 1, Vero, Conc. 2.0 μM), the inhibition at 2 µM was found to be 0%.

`COc1cc(C(=O)OCCCN2CCCN(CCCOC(=O)c3cc(OC)c(OC)c(OC)c3)CC2)cc(OC)c1OC` [Dilazep]: in data set [1] (Conc. 1.0 μM), the “Average Plaque Count” value is 442.0. Also, the inhibition at 1 µM in data set [1] (setting [5]) was determined as 8%. Further, the LD50 in data set [3] (male mice, oral) is 3740 mg/kg.

On to `Nc1nc2c(ncn2COCCO)c(=O)[nH]1` [ACV, 9-[(2-hydroxyethoxy)methyl]guanine], for which the results for the “Average Plaque Count” value in data set [1] (Conc. 1.0 μM), in data set [1] (Conc. 2.5 μM) and in data set [1] (Conc. 5.0 μM) were 279.5, 133.5 and 29.5, respectively. Besides, in data set [1] (setting [5]), the inhibition at 1 µM came out at 41.8%. Further, the inhibition at 2.5 µM in data set [1] (Human alphaherpesvirus 1, Vero, Conc. 2.5 μM) turned out to be 72.3%. Besides, the inhibition at 5 µM in data set [1] (setting [4]) is 93.8%. The 50% lethal dose (LD50) in data set [3] (mice oral) is over 10000 mg/kg.
